Tests used:
BRD4 (BD1) = target: T1, BRD4 (BD1) (Homo sapiens, UniProt O60885); test: Binding assay BRD4/acetylated peptide H4 (TR-FRET protein-protein interaction assay)
T1 construct: with relatively long constructs also being possible, preferably amino acids 44-168; made in house; host or cells: E. coli
Summary of the method: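 His6-BRD4 BD1 (aa 67-152, E. coli), usually 10 nM, with biotinylated tetra-acetylated H4 peptide in HEPES pH 7.5 buffer; 11 compound concentrations 0.1 nM–20 μM in duplicate, 10 min preincubation, 1 h at 22 °C then ≥3 h at 4 °C. TR-FRET 665/620 ratio; IC50 by 4-parameter fit.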

MOLM-13 cells = test: Cell proliferation assay (alamarBlue), MOLM-13; assay type: cell-based; settings: Homo sapiens, 96 hours incubation, inhibition of cell proliferation
Summary of the method: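 Cells in RPMI1640/10% FCS read by alamarBlue fluorescence (ex 530, em 590 nm) after overnight 37 °C incubation, then treated at 1E-5 to 1E-8 M for 96 h. Pre-treatment values subtracted from endpoint values and compared with buffer-only wells; IC50 is 50% proliferation inhibition.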

SMILES	IC50 (BRD4 (BD1)) [nM]	IC50 (MOLM-13 cells) [nM]
CNC(=O)N1N=C(c2ccc(N3CCN(C)C(=O)C3)cc2)c2cc(OC)c(OC)cc2CC1C (racemic) [Example 138, (±)-7,8-dimethoxy-N,4-dimethyl-1-[4-(4-methyl-3-oxopiperazin-1-yl)phenyl]-4,5-dihydro-3H-2,3-benzodiazepine-3-carboxamide]	30	280
CNC(=O)N1N=C(c2cccc(N3CCOCC3)c2)c2cc(OC)c(OC)cc2CC1C (racemic) [Example 140, (±)-7,8-dimethoxy-N,4-dimethyl-1-[3-(morpholin-4-yl)phenyl]-4,5-dihydro-3H-2,3-benzodiazepine-3-carboxamide]	60	470
CNC(=O)N1N=C(c2cccc(N3CC(F)(F)C3)c2)c2cc(OC)c(OC)cc2CC1C (racemic) [Example 141, (±)-1-[3-(3,3-difluoroazetidin-1-yl)phenyl]-7,8-dimethoxy-N,4-dimethyl-4,5-dihydro-3H-2,3-benzodiazepine-3-carboxamide]	70	550
CNC(=O)N1N=C(c2cccc(N3CCC3)c2)c2cc(OC)c(OC)cc2CC1C (racemic) [Example 142, (±)-1-[3-(azetidin-1-yl)phenyl]-7,8-dimethoxy-N,4-dimethyl-4,5-dihydro-3H-2,3-benzodiazepine-3-carboxamide]	100	680
CNC(=O)N1N=C(c2cccc(N3CCN(C)CC3)c2)c2cc(OC)c(OC)cc2CC1C (racemic) [Example 143, (±)-7,8-dimethoxy-N,4-dimethyl-1-[3-(4-methylpiperazin-1-yl)phenyl]-4,5-dihydro 3H-2,3-benzodiazepine-3-carboxamide]	170	840
CNC(=O)N1N=C(c2ccc(F)c(N3CCOCC3)c2)c2cc(OC)c(OC)cc2CC1C (racemic) [Example 144, (±)-1-[4-fluoro-3-(morpholin-4-yl)phenyl]-7,8-dimethoxy-N,4-dimethyl-4,5-dihydro-3H-2,3-benzodiazepine-3-carboxamide]	190	960
CNC(=O)N1N=C(c2ccc(F)c(N3CC(F)(F)C3)c2)c2cc(OC)c(OC)cc2CC1C (racemic) [Example 145, (±)-1-[3-(3,3-difluoroazetidin-1-yl)-4-fluorophenyl]-7,8-dimethoxy-N,4-dimethyl-4,5-dihydro-3H-2,3-benzodiazepine-3-carboxamide]	110	830
CNC(=O)N1N=C(c2ccc(F)c(N3CCC(O)CC3)c2)c2cc(OC)c(OC)cc2CC1C (racemic) [Example 146, (±)-1-[4-fluoro-3-(4-hydroxypiperidin-1-yl)phenyl]-7,8-dimethoxy-N,4-dimethyl-4,5-dihydro-3H-2,3-benzodiazepine-3-carboxamide]	470	1150
CNC(=O)N1N=C(c2ccc(-n3nc(-c4ccccc4)cc3C(F)(F)F)cc2)c2cc(OC)c(OC)cc2CC1C (racemic) [Example 149, (±)-7,8-dimethoxy-N,4-dimethyl-1-{4-[3-phenyl-5-(trifluoromethyl)-1H-pyrazol-1-yl]phenyl}-4,5-dihydro-3H-2,3-benzodiazepine-3-carboxamide]	1620	3000
CNC(=O)N1N=C(c2ccc(-n3ccc(-c4ccc(F)cc4)n3)cc2)c2cc(OC)c(OC)cc2CC1C (racemic) [Example 150, (±)-1-{4-[3-(4-fluorophenyl)-1H-pyrazol-1-yl]phenyl}-7,8-dimethoxy-N,4-dimethyl-4,5-dihydro-3H-2,3-benzodiazepine-3-carboxamide]	80	480
CNC(=O)N1N=C(c2ccc(-n3nc(C(F)(F)F)cc3C)cc2)c2cc(OC)c(OC)cc2CC1C (racemic) [Example 151, (±)-7,8-dimethoxy-N,4-dimethyl-1-{4-[5-methyl-3-(trifluoromethyl)-1H-pyrazol-1-yl]phenyl}-4,5-dihydro-3H-2,3-benzodiazepine-3-carboxamide]	20	1310
CNC(=O)N1N=C(c2ccc(-n3cncn3)cc2)c2cc(OC)c(OC)cc2CC1C (racemic) [Example 152, (±)-7,8-Dimethoxy-N,4-dimethyl-1-[4-(1H-1,2,4-triazol-1-yl)phenyl]-4,5-dihydro-3H-2,3-benzodiazepine-3-carboxamide]	70	430
CNC(=O)N1N=C(c2ccc(-n3ncnc3C)cc2)c2cc(OC)c(OC)cc2CC1C (racemic) [Example 153, (±)-7,8-dimethoxy-N,4-dimethyl-1-[4-(5-methyl-1H-1,2,4-triazol-1-yl)phenyl]-4,5-dihydro-3H-2,3-benzodiazepine-3-carboxamide]	110	480
CNC(=O)N1N=C(c2ccc(-n3nc(C)nc3C)cc2)c2cc(OC)c(OC)cc2CC1C (racemic) [Example 154, (±)-1-[4-(3,5-dimethyl-1H-1,2,4-triazol-1-yl)phenyl]-7,8-dimethoxy-N,4-dimethyl-4,5-dihydro-3H-2,3-benzodiazepine-3-carboxamide]	170	2080
CNC(=O)N1N=C(c2ccc(-c3c(C)noc3C)cc2)c2cc(C(C)(C)C)ccc2CC1C (racemic) [Example 155, (±)-8-tert-Butyl-1-[4-(3,5-dimethylisoxazol-4-yl)phenyl]-N,4-dimethyl-4,5-dihydro-3H-2,3-benzodiazepine-3-carboxamide]	40	380
CNC(=O)N1N=C(c2ccc(-c3c(C)noc3C)cc2)c2cc(OC(F)(F)F)c(Cl)cc2CC1C (racemic) [Example 156, (±)-7-Chloro-1-[4-(3,5-dimethylisoxazol-4-yl)phenyl]-N,4-dimethyl-8-(trifluoromethoxy)-4,5-dihydro-3H-2,3-benzodiazepine-3-carboxamide]	230	790
CNC(=O)N1N=C(c2ccc(-c3c(C)noc3C)cc2)c2cc(C)ccc2CC1C (racemic) [Example 158, (±)-1-[4-(3,5-dimethylisoxazol-4-yl)phenyl]-N,4,8-trimethyl-4,5-dihydro-3H-2,3-benzodiazepine-3-carboxamide]	60	430
CNC(=O)N1N=C(c2ccc(-c3c(C)noc3C)cc2)c2cc(OC(F)F)c(OC(F)F)cc2CC1C (racemic) [Example 160, (±)-7,8-Bis(difluoromethoxy)-1-[4-(3,5-dimethylisoxazol-4-yl)phenyl]-N,4-dimethyl-4,5-dihydro-3H-2,3-benzodiazepine-3-carboxamide]	260	400
CCOc1cc2c(cc1OCC)C(c1ccc(-c3c(C)noc3C)cc1)=NN(C(=O)NC)C(C)C2 (racemic) [Example 161, (±)-1-[4-(3,5-Dimethylisoxazol-4-yl)phenyl]-7,8-diethoxy-N,4-dimethyl-4,5-dihydro-3H-2,3-benzodiazepine-3-carboxamide]	110	280
CNC(=O)N1N=C(c2ccc(-c3c(C)noc3C)cc2)c2cc(OC)c(OC(F)F)cc2CC1C (racemic) [Example 162, (±)-7-(difluoromethoxy)-1-[4-(3,5-dimethylisoxazol-4-yl)phenyl]-8-methoxy-N,4-dimethyl-4,5-dihydro-3H-2,3-benzodiazepine-3-carboxamide]	130	380
CNC(=O)N1N=C(c2ccc(N3CCN(C)CC3)cc2)c2cc(OC)c(OC(F)F)cc2CC1C (racemic) [Example 163, (±)-7-(difluoromethoxy)-8-methoxy-N,4-dimethyl-1-[4-(4-methylpiperazin-1-yl)phenyl]-4,5-dihydro-3H-2,3-benzodiazepine-3-carboxamide]	60	210
CNC(=O)N1N=C(c2ccc(Cl)cc2)c2cc(OCCCN3CCN(C)CC3)ccc2CC1C (racemic) [Example 164, (±)-1-(4-chlorophenyl)-N,4-dimethyl-8-[3-(4-methylpiperazin-1-yl)propoxy]-4,5-dihydro-3H-2,3-benzodiazepine-3-carboxamide]	60	580
CNC(=O)N1N=C(c2ccc(Cl)cc2)c2cc(OCCCN3CCOCC3)ccc2CC1C (racemic) [Example 165, (±)-1-(4-chlorophenyl)-N,4-dimethyl-8-[3-(morpholin-4-yl)propoxy]-4,5-dihydro-3H-2,3-benzodiazepine-3-carboxamide]	130	880
CNC(=O)N1N=C(c2ccc(Cl)cc2)c2cc(OCCN3CCN(C)CC3)ccc2CC1C (racemic) [Example 166, (±)-1-(4-chlorophenyl)-N,4-dimethyl-8-[2-(4-methylpiperazin-1-yl)ethoxy]-4,5-dihydro-3H-2,3-benzodiazepine-3-carboxamide]	270	670
CNC(=O)N1N=C(c2ccc(-c3c(C)noc3C)cc2)c2cc(OC)c(C#N)cc2CC1C (racemic) [Example 170, (±)-7-Cyano-1-[4-(3,5-dimethylisoxazol-4-yl)phenyl]-8-methoxy-N,4-dimethyl-4,5-dihydro-3H-2,3-benzodiazepine-3-carboxamide]	70	520
CNC(=O)N1N=C(c2ccc(N3CCOCC3)cc2)c2cc(NC(C)=O)ccc2CC1C (racemic) [Example 171, (±)-8-Acetamido-N,4-dimethyl-1-[4-(morpholin-4-yl)phenyl]-4,5-dihydro-3H-2,3-benzodiazepine-3-carboxamide]	120	1910
CNC(=O)N1N=C(c2ccc(N3CCN(C)CC3)cc2)c2cc(NC(C)=O)ccc2CC1C (racemic) [Example 172, (±)-8-Acetamido-N,4-dimethyl-1-[4-(4-methylpiperazin-1-yl)phenyl]-4,5-dihydro-3H-2,3-benzodiazepine-3-carboxamide]	130	1910
